In US8822448B2, “Pyrazoloquinoline compound” (Astellas Pharma Inc., priority 2010, dated 2014):
Counter-ions that a name gives are not always drawn.

Target: PDE9 (Homo sapiens (Human), UniProt O76083)
Assay: PDE9-inhibiting activity (SPA enzyme assay)
Type: biochemical
Conditions: IC50 values; cGMP 1 μM substrate, 30° C.; read-out: PDE9 inhibition
Description: The PDE9-inhibiting activity was measured by the following method. That is, to a buffer solution containing tris(hydroxymethyl)aminomethane-hydrochloric acid (40 mM, pH 8.0), magnesium chloride (5 mM), and 2-mercaptoethanol (4 mM) were added cGMP (1 μM) and ^3H-cGMP (0.33 μCi/ml) to give a substrate buffer solution. A test substance solution and an enzyme solution which had been adjusted to an optimal concentration were added thereto to perform a reaction at 30° C. The enzyme reaction was stopped by the addition of Scintillation Proximity Assay (SPA) Beads (Perkin Elmer, USA) containing 5 mM 3-isobutyl-1-methylxanthine (IBMX). For the enzyme activity, the amount of 5′-GMP, which is a reaction degradation product bound to SPA beads, was measured with a TopCount microplate reader (Hewlett Packard, USA). The inhibitory rate was calculated by taking the radioactivity of the control containing no test substance as (A), taking the radioactivity of the blank containing no enzyme as (B), and taking the radioactivity of the test substance as (C), and using the following equation.

Sequence of PDE9 (O76083 whole entry): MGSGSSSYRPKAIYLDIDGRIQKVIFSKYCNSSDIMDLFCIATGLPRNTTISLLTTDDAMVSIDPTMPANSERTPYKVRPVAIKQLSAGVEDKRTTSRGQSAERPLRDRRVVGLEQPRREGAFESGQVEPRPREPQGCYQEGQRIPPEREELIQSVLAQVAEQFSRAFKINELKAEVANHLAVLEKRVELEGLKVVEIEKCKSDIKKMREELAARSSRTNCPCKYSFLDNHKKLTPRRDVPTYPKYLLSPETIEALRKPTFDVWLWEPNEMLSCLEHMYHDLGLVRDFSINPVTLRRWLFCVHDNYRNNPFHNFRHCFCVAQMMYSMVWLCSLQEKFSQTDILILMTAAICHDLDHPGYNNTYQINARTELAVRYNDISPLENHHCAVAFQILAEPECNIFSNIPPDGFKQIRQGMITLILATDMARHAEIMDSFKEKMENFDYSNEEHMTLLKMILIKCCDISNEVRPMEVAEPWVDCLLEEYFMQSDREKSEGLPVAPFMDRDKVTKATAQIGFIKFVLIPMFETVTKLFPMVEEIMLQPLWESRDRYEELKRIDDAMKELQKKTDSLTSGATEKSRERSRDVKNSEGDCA

Row | IC50 [nM] | SMILES
1 | 6.1 | CCOCC1CCN(C(=O)c2cc3c(cc2C)[nH]c(=O)c2cnn(C4CCOCC4)c23)C1 (stereo not shown) [Example 92]
2 | 1.7 | Cc1cc2[nH]c(=O)c3cnn(C4CCOCC4)c3c2cc1C(=O)N1CCC(OCC(F)F)CC1 [Example 94]
3 | 5 | COCCCCN(C)[C@H]1CCN(C(=O)c2cc3c(cc2C)[nH]c(=O)c2cnn(C4CCOCC4)c23)C1 [Example 127]
4 | 3 | Cc1cc2[nH]c(=O)c3cnn(C4CCOCC4)c3c2cc1C(=O)N1CCN(CCCC(F)(F)F)CC1 [Example 139]
5 | 8.3 | COCCCCN1C[C@@H]2C[C@H]1CN2C(=O)c1cc2c(cc1C)[nH]c(=O)c1cnn(C3CCOCC3)c12 [Example 145]
6 | 8 | Cc1cc2[nH]c(=O)c3cnn(C4CCOCC4)c3c2cc1C(=O)N1CC(N(C)CCC(F)(F)F)C1 [Example 150]
7 | 53 | CCOCC1CCN(C(=O)c2cc3c(cc2C(F)(F)F)[nH]c(=O)c2cnn(C4CCOCC4)c23)CC1 [Example 152]
8 | 31 | Cc1cc2[nH]c(=O)c3cnn(C4CCC4)c3c2cc1C(=O)N1CCN(CCC(F)(F)F)CC1 [Example 161]
9 | 4.3 | CCOCCC1CCN(C(=O)c2cc3c(cc2C)[nH]c(=O)c2cnn(C4CCOCC4)c23)CC1 [Example 168]
10 | 6.3 | Cc1cc2[nH]c(=O)c3cnn(C4CCOCC4)c3c2cc1C(=O)N1CCN(CCCOC(F)(F)F)CC1 [Example 173]
11 | 4.7 | Cc1cc2[nH]c(=O)c3cnn(C4CCOCC4)c3c2cc1C(=O)N1C[C@@H](C)N(CCC(F)(F)F)C[C@@H]1C [Example 184]
12 | 19 | Cc1cc2[nH]c(=O)c3cnn([C@H]4CCOC4)c3c2cc1C(=O)N1CCN(CCC(F)(F)F)CC1 [Example 185]
13 | 9.5 | Cc1cc2[nH]c(=O)c3cnn([C@H]4CCOC4)c3c2cc1C(=O)N1CCC(OCC(C)(F)F)CC1 [Example 191]
14 | 11 | Cc1cc2[nH]c(=O)c3cnn(C4CCOCC4)c3c2cc1C(=O)N1CCC(C(F)(F)F)CC1 [Example 192]
15 | 9 | Cc1cc2[nH]c(=O)c3cnn([C@H]4CCOC4)c3c2cc1C(=O)N1CCN(CCCC(F)(F)F)CC1 [Example 200]
16 | 2.8 | Cc1cc2[nH]c(=O)c3cnn([C@H]4CCOC4)c3c2cc1C(=O)N1CCC(OCC(F)(F)F)CC1 [Example 203]
17 | 1.7 | Cc1cc2[nH]c(=O)c3cnn(C4CCOCC4)c3c2cc1C(=O)N1CCN(CCC(F)(F)F)[C@@H](C)C1 [Example 207]
18 | 1.7 | Cc1cc2[nH]c(=O)c3cnn(C4CCC(F)(F)CC4)c3c2cc1C(=O)N1CCN(CCC(F)(F)F)[C@@H](C)C1 [Example 208]
19 | 2.4 | Cc1cc2[nH]c(=O)c3cnn(C4CCCC4)c3c2cc1C(=O)N1CCN(CCC(F)(F)F)[C@@H](C)C1 [Example 212]
20 | 24 | Cc1cc2[nH]c(=O)c3cnn(C4CCOCC4)c3c2cc1C(=O)N1CCC(O)(C(F)(F)F)CC1 [Example 221]
21 | 20 | Cc1cc2[nH]c(=O)c3cnn(C4CCOCC4)c3c2cc1C(=O)N1CCN(CC(F)(F)F)CC1 [Example 427]

Further lines, the molecule ahead of its results:

Row | SMILES | IC50 [nM]
22 | Cc1cc2[nH]c(=O)c3cnn(C4CCOCC4)c3c2cc1C(=O)N1CCN(Cc2cccnc2)CC1 [Example 2, 7-methyl-8-{[4-(pyridin-3-ylmethyl)piperazin-1-yl]carbonyl}-1-(tetrahydro-2H-pyran-4-yl)-1,5-dihydro-4H-pyrazolo[4,3-c]quinolin-4-one dihydrochloride] | 12
23 | Cc1cc2[nH]c(=O)c3cnn(C4CCOCC4)c3c2cc1C(=O)N1CCN(c2cnccn2)CC1 [Example 50] | 7.5
24 | CCOCCCN1CCN(C(=O)c2cc3c(cc2C)[nH]c(=O)c2cnn(C4CCC4)c23)CC1 [Example 70] | 17
25 | Cc1cc2[nH]c(=O)c3cnn(C4CCOCC4)c3c2cc1C(=O)N1CC2CN(Cc3ccccc3)CC2C1 (stereo not shown) [Example 74] | 12
26 | Cc1cc2[nH]c(=O)c3cnn(C4CCOCC4)c3c2cc1C(=O)N1CCC2(CCCO2)CC1 [Example 87] | 12
27 | CCOCCCCN1CCN(C(=O)c2cc3c(cc2C)[nH]c(=O)c2cnn(C4CCOCC4)c23)CC1 [Example 107] | 15
28 | COc1cc2[nH]c(=O)c3cnn(C4CCCC4)c3c2cc1C(=O)NCC(C)(C)N1CCOCC1 [Example 119] | 8.9
29 | COCCCCN1CCN(C(=O)c2cc3c(cc2OC)[nH]c(=O)c2cnn(C4CCCC4)c23)CC1 [Example 123] | 18
30 | CCc1cc2[nH]c(=O)c3cnn(C4CCOCC4)c3c2cc1C(=O)N1CCN(CCCCOC)[C@H](C)C1 [Example 129] | 1.1
31 | COCCCCN1CCN(C(=O)c2cc3c(cc2C)[nH]c(=O)c2cnn(C4CCC4)c23)C[C@@H]1C [Example 146] | 5.2
32 | CCOCC1CCN(C(=O)c2cc3c(cc2C)[nH]c(=O)c2cnn([C@H]4CCOC4)c23)CC1 [Example 148] | 5.1
33 | COCCCCN1CCN(C(=O)c2cc3c(cc2C)[nH]c(=O)c2cnn(CC4CCOCC4)c23)CC1 [Example 154] | 32
34 | CCc1cc2[nH]c(=O)c3cnn(C4CCC4)c3c2cc1C(=O)N1CCN(CCC(F)(F)F)CC1 [Example 162] | 7
35 | COCC(F)(F)CN1CCN(C(=O)c2cc3c(cc2C)[nH]c(=O)c2cnn([C@H]4CCOC4)c23)CC1 [Example 166] | 10
36 | Cc1cc2[nH]c(=O)c3cnn(C4CCOCC4)c3c2cc1C(=O)N1CCC(OC2CCC2)CC1 [Example 169] | 2.5
37 | Cc1cc2[nH]c(=O)c3cnn([C@H]4CCOC4)c3c2cc1C(=O)N1CCC(OC[C@H](C)F)CC1 [Example 178] | 4.4
38 | COCCCN1CCN(C(=O)c2cc3c(cc2C)[nH]c(=O)c2cnn(C4CCC4)c23)C[C@@H]1C [Example 179] | 6.8
39 | Cc1cc2[nH]c(=O)c3cnn([C@H]4CCN(C)C4)c3c2cc1C(=O)N1CCN(c2ccc(F)c(C)n2)[C@@H](C)C1 [Example 181] | 4.4
40 | Cc1cc2[nH]c(=O)c3cnn([C@H]4CCN(C)C4)c3c2cc1C(=O)N1CCN(c2ccc(F)c(C)n2)[C@H](C)C1 [Example 182] | 5.5
41 | COCCCCN1C[C@H](C)N(C(=O)c2cc3c(cc2C)[nH]c(=O)c2cnn(C4CCOCC4)c23)C[C@H]1C [Example 183] | 3.5
42 | COCCCCN1CCN(C(=O)c2cc3c(cc2C)[nH]c(=O)c2cnn(C4CCCC4)c23)C[C@@H]1C [Example 186] | 3.8
43 | COCCCCN1C[C@H](C)N(C(=O)c2cc3c(cc2C)[nH]c(=O)c2cnn(CC4CC4)c23)C[C@H]1C [Example 187] | 8.4

Row | SMILES | IC50 [nM]
44 | Cc1cc2[nH]c(=O)c3cnn(CC4CC4)c3c2cc1C(=O)N1C[C@@H](C)N(CCC(F)(F)F)C[C@@H]1C [Example 188] | 14
45 | COCCCCN1C[C@H](C)N(C(=O)c2cc3c(cc2C)[nH]c(=O)c2cnn(CC4CCC4)c23)C[C@H]1C [Example 189] | 6.9
46 | Cc1cc2[nH]c(=O)c3cnn(CC4CCC4)c3c2cc1C(=O)N1C[C@@H](C)N(CCC(F)(F)F)C[C@@H]1C [Example 190] | 7.5
47 | COCCCCN1CCN(C(=O)c2cc3c(cc2C)[nH]c(=O)c2cnn(C4CCC(F)(F)CC4)c23)C[C@@H]1C [Example 193] | 5.7
48 | COCCCCN1CCN(C(=O)c2cc3c(cc2C)[nH]c(=O)c2cnn(CC4CC4)c23)C[C@@H]1C [Example 195] | 4.4
49 | Cc1cc2[nH]c(=O)c3cnn([C@H]4CCOC4)c3c2cc1C(=O)N1CCC(OCC2CC2)CC1 [Example 198] | 3.2
50 | CCCOC1CCN(C(=O)c2cc3c(cc2C)[nH]c(=O)c2cnn([C@H]4CCOC4)c23)CC1 [Example 199] | 4.7
51 | CCOCCC1CCN(C(=O)c2cc3c(cc2C)[nH]c(=O)c2cnn([C@H]4CCOC4)c23)CC1 [Example 201] | 6.6
52 | Cc1cc2[nH]c(=O)c3cnn([C@H]4CCOC4)c3c2cc1C(=O)N1CCC(OC2CCC2)CC1 [Example 202] | 3.7
53 | COCCCCN1CCN(C(=O)c2cc3c(cc2C)[nH]c(=O)c2cnn(CC4CC(F)(F)C4)c23)C[C@@H]1C [Example 204] | 6.2
54 | Cc1cc2[nH]c(=O)c3cnn(CC4CC4)c3c2cc1C(=O)N1CCN(CCC(F)(F)F)[C@@H](C)C1 [Example 210] | 1.3
55 | Cc1cc2[nH]c(=O)c3cnn(CC4CCC4)c3c2cc1C(=O)N1CCN(CCC(F)(F)F)[C@@H](C)C1 [Example 211] | 1.2
56 | Cc1ccc(OC2CCN(C(=O)c3cc4c(cc3C)[nH]c(=O)c3cnn(C5CCN(C)CC5)c34)CC2)nc1 [Example 213] | 11
57 | CCN1CCN(C(=O)c2cc3c(cc2C)[nH]c(=O)c2cnn(C4CCN(C)CC4)c23)C[C@@H]1c1ccccc1 [Example 214] | 16
58 | Cc1cc2[nH]c(=O)c3cnn([C@H]4CCOC4)c3c2cc1C(=O)N1CCN(CCCOC(F)(F)F)CC1 [Example 219] | 15
59 | Cc1cc2[nH]c(=O)c3cnn([C@H]4CCOC4)c3c2cc1C(=O)N1CCC(OC[C@@H](C)F)CC1 [Example 220] | 16
60 | Cc1cc2[nH]c(=O)c3cnn(C4CCOCC4)c3c2cc1C(=O)N1CCC2(CC1)COc1ccccc12 [Example 283] | 5.9
61 | COCCCN1CCN(C(=O)c2cc3c(cc2C)[nH]c(=O)c2cnn(C4CCC(F)(F)CC4)c23)C[C@@H]1C [Example 624] | 10
62 | COCCCN1CCN(C(=O)c2cc3c(cc2C)[nH]c(=O)c2cnn(CC4CC4)c23)C[C@@H]1C [Example 640] | 3.3
63 | COCCCN1CCN(C(=O)c2cc3c(cc2C)[nH]c(=O)c2cnn(CC4CCC4)c23)C[C@@H]1C [Example 648] | 2
64 | COCCCN1CCN(C(=O)c2cc3c(cc2C)[nH]c(=O)c2cnn(C4CCCC4)c23)C[C@@H]1C [Example 655] | 4.7
